From patent US20090280106A1, “Pituitary adenylate cyclase acivating peptide (pacap) receptor (vpac2) agonists and their pharmacological methods of use” (Bayer Pharmaceuticals Corporation, priority 2005, published 2009)

Experiments:
[1] = biological target: T1, DPPIV (Homo sapiens, UniProt P27487); conditions: longer time points
Protocol: The formulations described in Example 4 are placed in constant stability chamber. Peptides are also analyzed for stability to degradation in solutions of DPPIV and in plasma. Samples are removed periodically for analysis by capillary electrophoresis, mass spectrometry, Edman degradation, ELISA, and assays of peptide activity, which are sensitive methods to detect degradation of peptide. The area of various peaks is summed and the area for peak of the parent peptide is divided by the total peak area. The quotient is the % purity. Since there are impurities present in the fresh peptide, the purity change is normalized by dividing the purity at different time point by the initial purity. For stability to DPPIV and plasma, peptides at 20 pmol/μl were incubated at 37° C. in the presence of 300 pM DPPIV in 100 mM HEPES, pH 7.4. At various timepoints, the reaction (2 μl aliquot) is terminated by addition of 1 μM DPPIV inhibitor and freezing. For MALDI mass spectrometric analysis, T=0 hr, 1 hr, 5 hr, and 24 hr timepoints are evaluated. The results are plotted as percent intact peptide or peptide derivative as compared to degradation products.

[2] = biological target: T1, DPPIV; conditions: cited from earlier work

T1 sequence (P27487 whole entry, species assumed): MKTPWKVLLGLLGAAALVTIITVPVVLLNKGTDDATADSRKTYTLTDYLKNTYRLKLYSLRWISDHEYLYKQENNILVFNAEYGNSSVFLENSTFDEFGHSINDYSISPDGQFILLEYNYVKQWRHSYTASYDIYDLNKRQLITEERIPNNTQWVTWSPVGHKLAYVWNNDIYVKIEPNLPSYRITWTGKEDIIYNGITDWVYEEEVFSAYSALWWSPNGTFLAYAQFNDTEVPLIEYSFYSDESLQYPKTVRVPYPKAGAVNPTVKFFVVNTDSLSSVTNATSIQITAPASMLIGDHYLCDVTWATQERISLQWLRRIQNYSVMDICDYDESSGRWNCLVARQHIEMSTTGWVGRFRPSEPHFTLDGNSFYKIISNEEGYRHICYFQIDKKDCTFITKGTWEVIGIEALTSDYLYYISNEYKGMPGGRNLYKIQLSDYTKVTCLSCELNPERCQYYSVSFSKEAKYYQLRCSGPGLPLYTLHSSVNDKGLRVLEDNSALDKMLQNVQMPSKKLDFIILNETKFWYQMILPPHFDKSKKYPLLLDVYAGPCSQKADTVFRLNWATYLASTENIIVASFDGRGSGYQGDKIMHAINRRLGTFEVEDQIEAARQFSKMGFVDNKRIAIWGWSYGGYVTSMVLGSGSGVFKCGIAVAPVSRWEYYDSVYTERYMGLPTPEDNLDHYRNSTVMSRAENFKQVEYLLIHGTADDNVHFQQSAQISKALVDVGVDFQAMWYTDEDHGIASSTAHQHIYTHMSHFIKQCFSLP

For `CC[C@H](C)[C@H](NC(=O)[C@H](CO)NC(=O)[C@H](CC(N)=O)NC(=O)[C@H](CC(C)C)NC(=O)[C@H](Cc1ccc(O)cc1)NC(=O)[C@H](CCCCN)NC(=O)[C@H](CCCCN)NC(=O)[C@@H](NC(=O)[C@H](C)NC(=O)[C@H](CCSC)NC(=O)[C@H](CCC(N)=O)NC(=O)[C@H](CCCCN)NC(=O)[C@H](CCCN=C(N)N)NC(=O)[C@H](CC(C)C)NC(=O)[C@H](CCCN=C(N)N)NC(=O)[C@@H](NC(=O)[C@H](Cc1ccc(O)cc1)NC(=O)[C@H](CC(N)=O)NC(=O)[C@H](CC(=O)O)NC(=O)[C@@H](NC(=O)[C@H](Cc1ccccc1)NC(=O)[C@@H](NC(=O)[C@H](C)NC(=O)[C@H](CC(=O)O)NC(=O)[C@H](CO)NC(=O)[C@@H](N)Cc1c[nH]cn1)C(C)C)[C@@H](C)O)[C@@H](C)O)C(C)C)C(=O)N[C@@H](CC(C)C)C(=O)N[C@@H](CC(N)=O)C(N)=O` [VIP], the “cleavage by DPPIV” value [1] is given as “cleaved at longer time points” and the “cleavage by DPPIV as reported (Zhu, et al., J. Biol. Chem. 278: 22418-22423, 2003)” value [2] is given as “resistant to cleavage”.
In the case of `CC[C@H](C)[C@H](NC(=O)CNC(=O)[C@H](CC(=O)O)NC(=O)[C@H](CO)NC(=O)[C@@H](N)Cc1cnc[nH]1)C(=O)N[C@@H](Cc1ccccc1)C(=O)N[C@H](C(=O)N[C@@H](CC(=O)O)C(=O)N[C@@H](CO)C(=O)N[C@@H](Cc1ccc(O)cc1)C(=O)N[C@@H](CO)C(=O)N[C@@H](CCCNC(=N)N)C(=O)N[C@@H](Cc1ccc(O)cc1)C(=O)N[C@@H](CCCNC(=N)N)C(=O)N[C@@H](CCCCN)C(=O)N[C@@H](CCC(N)=O)C(=O)N[C@@H](CCSC)C(=O)N[C@@H](C)C(=O)N[C@H](C(=O)N[C@@H](CCCCN)C(=O)N[C@@H](CCCCN)C(=O)N[C@@H](Cc1ccc(O)cc1)C(=O)N[C@@H](CC(C)C)C(=O)N[C@@H](C)C(=O)N[C@@H](C)C(=O)N[C@H](C(=O)N[C@@H](CC(C)C)C(N)=O)C(C)C)C(C)C)[C@@H](C)O` [PACAP27], the “cleavage by DPPIV” value [1] is listed as “cleaved at longer time points” and the “cleavage by DPPIV as reported (Zhu, et al., J. Biol. Chem. 278: 22418-22423, 2003)” value [2] is listed as “resistant to cleavage”.
